Measurements published in patent US20200268864A1, “CANCER VACCINE COMPOSITIONS AND METHODS FOR USING SAME TO TREAT CANCER” (Dana-Farber Cancer Institute, Inc., priority 2017, published 2020).
Entries after “also recorded” stand apart in the source; their conditions may differ.

Key:
[1] = system: PBM tumor tissues; assay: Gene Set Enrichment Analysis of PBM tumor tissues; format: in vivo, mouse; conditions: 18 days of treatment, vs vehicle; panel of 4604 genes
Description: RNA was isolated from tumor samples as described above, sequenced on the ion Torrent platform per manufacturer's instructions using a custom AmpliSeq panel targeting 4604 murine genes relevant to our studies, and raw data was processed using the Torrent Suite and AmpliSeqRNA plugin to give read counts per gene. Differential gene expression analyses were carried out using DESeq2 with default parameters to obtain log 2 fold change (MAP) and adjusted p-values (Benjamini-Hochberg procedure) (Love et al. (2014) Genorme Biol. 15:550). Genes were ranked by log 2 fold change (MAP), and GSEA were carried out using the GSEAPreranked tool (Mootha et al. (2003) Nat. Genet. 34:267-273; Subramanian et al. (2005) Proc. Natl. Acad. Sci. USA 102:15545-15550). PCA were carried out using DESeq2.

[2] = system: Brca1-null ID8 tumors; assay: Subcutaneous Brca1-null ID8 tumors in WT or STING-KO mice; format: in vivo, mouse
Description: Single cells were obtained by digestion of primary ovarian tumors in collagenase buffer and then cultured in MOT media (DMEM/F12, 0.6% FBS, 10 ng/ml EGF, hydrocortisone 1 μg/ml, cholera toxin 1 ng/ml, 100 μg/ml penicillin-streptomycin, 5 μM Y27632). Tumor cells were transduced with lentiviral vector encoding luciferase (pLenti-blasticidin-luciferase) and then subjected to 3 days antibiotic selection with blasticidin 2 μg/ml. These luciferased tumors were transplanted orthotopically into syngeneic FVB/NJ mice to generated tumors for drug evaluation. Olaparib (AZD2281) was used by diluting 100 mg/ml stocks in DMSO with 10% 2-hydroxyl-propyl-β-cyclodextrine/PBS and administered daily by i.p. injection at dose of 50 mg/kg body weight. Mouse anti-PD-1 monoclonal antibody kindly provided by Gordon Freeman at DFCI was diluted in PBS (250 μg/100 μl/mouse) and injected by i.p. every 3 days. BX795 (Cat # HY-10514/CS-0259, MedChem Express) was prepared in DMSO (100 mg/ml) as stock solution and diluted in (25% PEG400+0.5% Tween)/PBS and administered daily by i.p. injection at dose of 30 mg/kg body weight. Anti-IFNAR1 antibody (Cat # BE0241; clone, MAR1-5A3; InVivoMab) was diluted in PBS (200 μg/100 μl/mouse) and injected by i.p. every 3 days. Tumor-bearing mice were equivalently divided into control and treatment groups according to the luminescent intensity. The endpoints were determined by tumor burden and ascites. For the CD8 depletion experiment, mice were injected intraperitoneally with anti-CD8 antibody (400 μg; clone YTS 169.4, BioXcell) 24 and 48 h before beginning olaparib treatment (50 mg/kg/day) and every 4 days thereafter.
Brca-1 deficient ID8 cells were generated using a CRISPR double nickase plasmid. […] Due to a lack of a reliable mouse BRCA1 antibody for Western blot, cells were analyzed by DNA sequencing to confirm the disruption of functional Brca1 allele. […]

[3] = system: PBM cells; assay: Cytosolic dsDNA (PicoGreen) and micronuclei staining, PBM cells; format: cell-based, mouse; conditions: 2.5 μM, 24 h
Description: PBM and PPM cells were cultured on chambered cell culture slides (BD Falcon). Cells were treated with 2.5 μM olaparib or vehicle control (DMSO) for 24 hours. Following the treatment, cells were incubated with culture media containing PicoGreen double-stranded DNA stain (200-fold dilution, Life Technologies). After one-hour incubation, cells were fixed with 4% paraformaldehyde in PBS (Santa Cruz Biotechnology) for 10 minutes. Cells were then washed twice with PBS and stained with 300 nM DAPI (Thermo Fisher Scientific) for 10 minutes. Coverslips were mounted using ProLong Diamond Antifade Mountant (Thermo Fisher Scientific). Staining was imaged using a Leica SP5X laser scanning confocal microscope.

[4] = system: human DCs co-cultured with UWB1.289; assay: Co-culture of human DCs with olaparib-treated UWB1.289 cells; format: cell-based; conditions: BRCA1-deficient UWB1.289
Description: Bone marrow cells were isolated from FVB/NJ mice and cultured in RPMI-1640 containing 10% FBS and 20 ng/ml GM-CSF. BMDCs (bone marrow derived dendritic cells) were harvested for in vitro co-culture assay on day 7 to day 10. About 3×10^5 PBM or PPM tumor cells were cultured in a 6-well plate for 24 hr. and then treated with DMSO or olaparib. After 24 hr incubation with DMSO, olaparib, or olaparib in combination with other drugs (cell cycle inhibitor or apoptosis inhibitor), drugs were removed and tumor cells were washed twice with PBS. BMDCs were added and co-cultured with PBM or PPM cells at a ratio of 1:1 in 1.5 ml culture media in the presence of GM-CSF (20 ng/ml) and lipofectamine (2 μl) for 24 hr. Co-cultured cells were harvested for flow cytometry analysis and floating cells (percentage of BMDCs is about 90%), or RNA analysis. Cell culture supernatants were collected for detection of IFN-β with the ELISA kit. BMDCs generated from C57BL/6J mice were applied for the coculture of BMDCs with ID8 tumor cells. Human dendritic cells purchased from Lonza were used for the coculture of human DCs with DMSO or olaparib-treated human ovarian cancer cells ([…] and UWB1.289+BRCA1).

[5] = system: PBM tumor-bearing mice; assay: Cytokine array of plasma/sera; format: in vivo, mouse; conditions: day 2 of treatment
Description: Blood was obtained by retro-orbital sampling at intermediate time points or experimental end points. Blood cells and plasma/sera were separated by centrifugation at 1,500×g for 5 min. at 4° C. Plasmaisera were sent out to Eve Technologies for cytokine array analysis (Chemokine Array 31-Plex and Mouse Procarta IFN 2-plex Featured Assay). Plasma/sera were applied to ELISA according to manufacturer's instructions. For in vitro experiments, cell culture supernatants were obtained by centrifugation at 1,500×g for 5 min. at 4° C. to remove all debris and cells, and were then subjected to ELISA analysis. IFN-β was detected using the LEGEND MAX™ Mouse IFN-β ELISA Kit (BioLegend).

Compound: O=C(c1cc(Cc2n[nH]c(=O)c3ccccc23)ccc1F)N1CCN(C(=O)C2CC2)CC1 [olaparib, Olaparib]
- GSEA: expression of immune-related gene sets [1]: markedly upregulated expression of genes associated with immune response, T-cell activation and interferon-γ (IFNγ) response
- tumor growth (tumor weights) ([2]; STING-KO hosts): little effect
- abundance of intratumoral p-TBK1+ DCs ([2]; WT host): increased abundance
- tumor growth (tumor weights) ([2]; WT mice): significantly inhibited the tumor growth
- cytosolic dsDNAs and micronuclei [3]: increased
- levels of p-TBK1+p-IRF3+ and IFN-β in human DCs [4]: Increased levels
- plasma/sera cytokine levels (CXCL9, CXCL10, IFNβ and others) [5]: significant increase; also recorded: increased levels of multiple cytokines
- plasma/sera cytokine levels (CXCL9, CXCL10, IFNβ and others) ([5]; listed as Olaparib): changes on the levels of various cytokines
